Results on 4 compounds are retold here after patent US7700272B2, “Polynucleotides encoding acetylcholine-gated chloride channel subunits of Caenorhabditis elegans” (priority 2004, dated 2010).

The target in series [1] is ACC-2D6.3 channel (Caenorhabditis elegans, UniProt Q18812). Put plainly: cell-based. The text has this: (§1) For capped cRNA synthesis, cDNAs were subcloned into the pT7N vector, which contains a T7 RNA polymerase promoter, the 5′- and 3′-UTR of Xenopus laevis beta-globin, and an encoded poly(A+) tail (Cary R B, Klymkowsky M W, Evans R M, Domingo A, Dent J A, Backhus L E (1994) Vimentin's tail interacts with actin-containing structures in vivo. J Cell Sci 107:1609-1622.). The pT7NcDNA constructs were linearized with Sal I (ACC-2D6.3) or BamHI (ACC-1G6.4) and transcribed using the MEGAscript Kit (Ambion, Austin, Tex., USA). Synthesized cRNAs were recovered by LiCl precipitation and resuspended in nuclease-free H2O at final concentration of 1 microgram/ml.
(§2) Oocytes were harvested from mature female Xenopus leavis according to standard procedures (Goldin, A. L. (1992) Maintenance of Xenopus laevis and oocyte injection. Methods Enzymol. 207: 266-79.). To remove inner ovarian epithelium, thecal cell layer, and follicular cells, the ovarian pieces were placed in OR-2 solution: 82.5 mM NaCl, 2 mM KCl, 1 mM MgCl2, and 5 mM Hepes (pH 7.5) containing 1 mg/ml type I collagenase (Sigma, St Louis Mo., USA) either for 3 hours at 20° C. with gentle agitation or for 1 hour followed by manual defolliculization. The stage VI defolliculated oocytes were placed in ND96 solution (96 mM NaCl, 2 mM KCl, 1.8 mM CaCl2, 1 mM MgCl2, and 5 mM Hepes, pH7.5). Oocytes were injected with 40 nl of cRNA using the Nanoject system (Drummond Scientific, Broomall, Pa., USA). Injected oocytes were incubated at 20° C. in ND96 supplemented with […] gentamycin and […] pyruvate. Oocytes were allowed to express cRNA for two days before measurements were taken.
(§3) Two-electrode voltage-clamp recordings were performed using the AxoClamp 2B amplifier (Axon Instruments, Foster City, Calif., USA). Microelectrodes were pulled from borosilicate glass capillaries (Word Precision Instruments, Inc., Sarasota, Fla., USA) on the P-97 micropipette puller Sutter Instruments, Novato, Calif., USA). […] Each oocyte was placed in RC-12 recording chamber (Warner Instrument Inc., Hamden, Conn., USA) or a Maltese cross chamber (ALA Scientific Instruments, Westbury, N.Y., USA) and clamped at −80 mV. Data were acquired at 1 kHz using Clampex software (Axon Instruments, Foster City, Calif., USA).
(§4) Dose-response curves for agonists were generated by their applying the agonist in increasing concentrations followed by 3-9 min washes at each concentration. To determine EC50 and Hill coefficient agonist dose response curves were fit using the following equation: f(I)=(Imax[I]^n/(EC50^n+[I]^n))+Imin, where I is the normalized response to agonist at certain concentration, Imax is the maximal response elicited by a saturating concentration of agonist, EC50 is the concentration of agonist inducing half-maximal response, n is the Hill coefficient, and Imin is the normalized response at lowest agonist concentration.
(§5) The mean and standard error of the mean of peak current responses of at least three oocytes per experiment are represented.
(§6) All drugs were obtained from Sigma-Aldrich (St. Louis, Mo. USA) except imidicloprid (IMI) which was provided by Crompton Co. (Guelph, ON, Canada). Drugs were dissolved in ND96 except IMI, which was made as a stock solution in DMSO and diluted to working concentrations in ND96. If required, drug solutions were adjusted to pH 7.5 with either NaOH or HCl. Fresh solutions were prepared before measurements and stored at 4° C. for 1-5 days.

Another series has as its target ACC-2 Y100L (Caenorhabditis elegans, UniProt Q18812, Y100L). Put plainly: Voltage-clamp of Xenopus oocytes expressing ACC-2 mutant Y100L. It counts as cell-based, C. elegans. The protocol:
as §3, §4
(§7) These mutations are substitutions of Leu for Tyr at amino acid 100 (Y100L) and Tyr for Phe at amino acid 160 (F160Y).

The test system of the next series is ACC-2D6.3+ACC-3D10.5. It counts as cell-based, C. elegans. Particulars: 1 mM.
The subject of a further series is ACC-4E9.9. Put plainly: Two-electrode voltage-clamp of Xenopus oocytes injected with ACC-4E9.9 cRNA. Particulars: 1 mM. It counts as cell-based, C. elegans. In general terms: In two-electrode clamp one electrode senses voltage and the other passes current.
Another series deals with ACC-2D6.3+ACC-4E9.9. Format: cell-based, C. elegans. Particulars: 1 mM.
Another series concerns ACC-3D10.5. Put plainly: Two-electrode voltage-clamp of Xenopus oocytes injected with ACC-3D10.5 cRNA. Particulars: 1 mM. Format: cell-based, C. elegans.
Another series deals with ACC-2 F160Y (Caenorhabditis elegans, UniProt Q18812, F160Y). Put plainly: Voltage-clamp of Xenopus oocytes expressing ACC-2 mutant F160Y. It counts as cell-based, C. elegans. The protocol: as §3, §4, §7
The test system of series [2] is T1, ACC-1G6.4 channel.
T1 construct: rows headed: evoked current as % of the maximal ACh-elicited current; other: text; maximal magnitude of ACh-elicited inward current; other: −80 mV
As to the kind of experiment: Two-electrode voltage-clamp of Xenopus oocytes expressing ACC-1G6.4 homomeric channel. Particulars: one range given for both channels. It counts as cell-based, C. elegans.
Excerpt: as §1, §2, §3, §4, §5, §6

The target in series [3] is T2, ACC-1G6.4 channel (Caenorhabditis elegans, UniProt Q21005).
T2 construct: Agonist: percentage of maximal acetylcholine-elicited response; other: compound at 0.1 mM; Agonist: percentage of maximal acetylcholine-elicited response; other: compound at 0.2 mM; other: compound at 0.4 mM; other: compound at 0.8 mM; Agonist: percentage of maxim
The series is described as above. It counts as cell-based, C. elegans.
Excerpt: as §1, §2, §3, §4, §5, §6

The subject of series [4] is ACC-2D6.3 channel. As to the kind of experiment: cell-based.
Excerpt: as §1, §2, §3, §4, §5, §6

A further series has as its target rat α9nAChRs (Rattus norvegicus, UniProt P43144). Particulars: cited from earlier work.
The test system of series [5] is Aplysia receptors mediating the slow desensitizing chloride-dependent response. Particulars: cited from earlier work; for EC50: read-out: EC50 (range).
Where [6] appears, read: EC50 (agonist), oocytes clamped at −80 mV, wild type.
Where [7] appears, read: concentration tested in brackets where printed.
Setting [8] is: read-out: Agonist: percentage of maximal acetylcholine-elicited response.

The structures appear in SMILES notation. Values joined by “and” are separate entries in the source; they are usually repeats but may differ in a detail not shown here. Equal values may be shown once. “Also recorded” adds a separate entry of the source. Read-outs that look alike come from different tables or passages of the source.

As usually defined, the EC50 is the concentration needed to bring the measured effect to its halfway point. Broadly, the IC50 is the concentration that inhibits the measured activity by half.

T2 sequence (Q21005 whole entry, looked up): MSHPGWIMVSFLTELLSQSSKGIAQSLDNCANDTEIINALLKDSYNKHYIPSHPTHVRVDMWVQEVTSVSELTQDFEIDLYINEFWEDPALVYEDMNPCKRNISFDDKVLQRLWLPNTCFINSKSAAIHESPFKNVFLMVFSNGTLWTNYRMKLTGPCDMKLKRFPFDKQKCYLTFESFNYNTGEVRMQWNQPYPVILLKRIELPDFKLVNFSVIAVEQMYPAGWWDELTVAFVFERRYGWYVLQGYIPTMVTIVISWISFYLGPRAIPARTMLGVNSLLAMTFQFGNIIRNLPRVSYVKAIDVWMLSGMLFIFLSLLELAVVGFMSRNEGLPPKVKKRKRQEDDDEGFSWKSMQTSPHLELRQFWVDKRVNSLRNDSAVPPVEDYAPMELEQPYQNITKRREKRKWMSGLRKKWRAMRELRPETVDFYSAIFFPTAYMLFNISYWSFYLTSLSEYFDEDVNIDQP
Chain of rat α9nAChRs (P43144 26-479): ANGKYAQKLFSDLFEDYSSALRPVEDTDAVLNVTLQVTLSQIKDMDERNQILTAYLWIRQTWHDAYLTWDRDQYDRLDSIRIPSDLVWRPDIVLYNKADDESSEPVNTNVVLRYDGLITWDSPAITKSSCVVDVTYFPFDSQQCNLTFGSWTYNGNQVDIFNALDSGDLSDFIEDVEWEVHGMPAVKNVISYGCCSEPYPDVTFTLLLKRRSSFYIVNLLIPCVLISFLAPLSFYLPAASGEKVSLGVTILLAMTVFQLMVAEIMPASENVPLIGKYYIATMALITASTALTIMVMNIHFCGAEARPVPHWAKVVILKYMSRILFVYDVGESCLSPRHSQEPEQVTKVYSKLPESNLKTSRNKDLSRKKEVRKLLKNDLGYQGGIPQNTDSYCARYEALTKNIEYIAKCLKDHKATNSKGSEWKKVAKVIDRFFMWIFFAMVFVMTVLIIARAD
Chain of ACC-2D6.3 channel (Caenorhabditis elegans, UniProt Q18812) (Q18812 whole entry, looked up): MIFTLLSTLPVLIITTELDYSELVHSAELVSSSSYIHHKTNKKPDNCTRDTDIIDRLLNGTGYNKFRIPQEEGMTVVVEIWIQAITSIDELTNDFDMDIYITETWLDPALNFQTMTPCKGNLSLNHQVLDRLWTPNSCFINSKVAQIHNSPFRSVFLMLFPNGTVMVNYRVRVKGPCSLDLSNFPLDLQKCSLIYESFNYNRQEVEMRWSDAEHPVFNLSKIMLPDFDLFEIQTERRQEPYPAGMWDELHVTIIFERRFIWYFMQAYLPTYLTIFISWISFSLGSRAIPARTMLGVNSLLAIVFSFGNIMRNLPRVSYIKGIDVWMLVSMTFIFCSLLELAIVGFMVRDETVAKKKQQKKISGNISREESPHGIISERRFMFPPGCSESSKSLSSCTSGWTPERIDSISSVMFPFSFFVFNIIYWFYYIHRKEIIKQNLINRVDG
Chain of ACC-2 F160Y (Q18812 whole entry F160Y, looked up): as the sequence (Q18812 whole entry, looked up) above, with F160Y counted along it
Chain of ACC-2 Y100L (Q18812 whole entry Y100L, looked up): as the sequence (Q18812 whole entry, looked up) above, with Y100L counted along it
Procedure for ACC-2D6.3+ACC-3D10.5: (§8) Oocytes were harvested from mature female Xenopus leavis according to standard procedures (Goldin, A. L. (1992) Maintenance of Xenopus laevis and oocyte injection. Methods Enzymol. 207: 266-79.). To remove inner ovarian epithelium, thecal cell layer, and follicular cells, the ovarian pieces were placed in OR-2 solution: 82.5 mM NaCl, 2 mM KCl, 1 mM MgCl2, and 5 mM Hepes (pH 7.5) containing 1 mg/ml type I collagenase (Sigma, St Louis Mo., USA) either for 3 hours at 20° C. with gentle agitation or for 1 hour followed by manual defolliculization. The stage VI defolliculated oocytes were placed in ND96 solution (96 mM NaCl, 2 mM KCl, 1.8 mM CaCl2, 1 mM MgCl2, and 5 mM Hepes, pH7.5). Oocytes were injected with 40 nl of cRNA using the Nanoject system (Drummond Scientific, Broomall, Pa., USA). Injected oocytes were incubated at 20° C. in ND96 supplemented with 100 mg/ml gentamycin and 550 mg/ml pyruvate. Oocytes were allowed to express cRNA for two days before measurements were taken.
Procedure for ACC-2D6.3+ACC-4E9.9: as §8

`CC(=O)OCC[N+](C)(C)C` [ACh, acetylcholine]: the “estimated Hill coefficient (agonist)” value on ACC-2D6.3 channel [1] is reported as 2.64±0.08. Moreover, the EC50 on ACC-2D6.3 channel [1] (setting [6]) was found to be 9.54 ± 0.11 µM; on ACC-2D6.3 channel [1] (EC50, Table 4), 9.5 µM; on ACC-2 Y100L it was 351 ± 33 µM; on ACC-2 F160Y it was 44 ± 1.8 µM. For the same compound, the current response in the series with ACC-2D6.3+ACC-3D10.5 was 50-60 nA; with ACC-3D10.5 it was 10-30 nA. Besides, the “response (in words)” value is reported as “no response” with ACC-4E9.9 and “did not respond” with ACC-2D6.3+ACC-4E9.9.

On to `COC(=O)C1=CCCN(C)C1` [arecoline], for which the “evoked current as % of the maximal ACh-elicited current” value at ACC-2D6.3 channel [1] and in the series on ACC-1G6.4 channel [2] was 82-89% throughout. Besides, the EC50 at ACC-2D6.3 channel [1] (setting [6]) turned out to be 754 ± 22 µM; at ACC-1G6.4 channel [3] (oocytes clamped at −80 mV, read-out: EC50 (agonist)) it was 4.7 ± 0.11 µM. The “estimated Hill coefficient (agonist)” value is given as 2.66±0.23 on ACC-2D6.3 channel [1] (agonist dose-response) and 1.59±0.09 at ACC-1G6.4 channel [3] (agonist dose-response). The “antagonist action (in words)” value on ACC-2D6.3 channel [1] (setting [7]) and at ACC-1G6.4 channel [3] (setting [7]) was “did not inhibit the ACh response” in each case. In addition, the “agonist action (in words)” value on ACC-1G6.4 channel [3] (setting [7]) is listed as “agonists; also recorded: strong agonist; also recorded: strongly”.

Consider `O=c1cccc2n1C[C@@H]1CNC[C@H]2C1` [cytisine], for which, on ACC-2D6.3 channel [1], the “Agonist: percentage of maximal acetylcholine-elicited response” value was determined as 15.5 ± 2.9%, the EC50 is about 1000 µM and the IC50 is about 100 µM. The “concentrations at which channels responded” value with ACC-2D6.3 channel [4] was 800 to 1000 µM. At rat α9nAChRs, the IC50 is 43.1 µM, the “agonist action (in words)” value is listed as “no agonistic activity” and the “antagonist action (in words)” value is “Antagonist”. In series [5], the “agonist action (in words)” value is “Weak partial agonist”, the “estimated relative effectiveness versus acetylcholine” value is recorded as about 0.14 and the EC50 was about 100 µM. For the same compound, on ACC-1G6.4 channel [3], the “Antagonist: percentage decrease in a response to acetylcholine” value was 66.8 ± 3% and 95 ± 1.4%; the IC50 is about 10 µM; the “agonist action (in words)” value is “weak agonists and/or antagonists; also recorded: no agonistic activity”; the “antagonist action (in words)” value is “only as an antagonist”. The activation at 800 µM at ACC-1G6.4 channel [3] (setting [8]) was 0%.

Regarding `CN1CCCC1c1cccnc1` (stereo not shown) [nicotine], at ACC-2D6.3 channel [1], the EC50 is about 1000 µM and the “antagonist action (in words)” value is given as “no antagonistic”. For the same compound, the “concentrations at which channels responded” value in the series on ACC-2D6.3 channel [4] fell in the range of 800 to 1000 µM. Further, at rat α9nAChRs, the “agonist action (in words)” value is listed as “no agonistic activity” and the “antagonist action (in words)” value was “Antagonist”. Also, in [5] (Table 4, order of magnitude), the concentration giving a half-maximal response (EC50) is about 100 µM. Further, in series [5], the “agonist action (in words)” value was “Weak partial agonist”. Further, on ACC-1G6.4 channel [3], the EC50 is about 1000 µM, the half-maximal inhibitory concentration (IC50) is about 100 µM, the “agonist action (in words)” value is on record as “weak agonists and/or antagonists; also recorded: very weak agonist; also recorded: poorly; also recorded: Weak partial agonist” and the “antagonist action (in words)” value is “partial antagonist”. For the same compound, at ACC-1G6.4 channel [3] (setting [8]), the activation at 100 µM turned out to be 5.2 ± 1.2% and the activation at 1000 µM amounted to 12 ± 2.7%.
